Where no end group is shown, it is not given here.
Experiments:
ACE = experiment: Cleavage by ACE (stability test, HPLC); assay type: in vitro ADME, rabbit; conditions: peptide 30 µM, 37°C, four hours, RP-HPLC, UV 214 nm; for metabolised at 4 h, 30 µM: rabbit, ACE
Description: All chemicals used in the present study were of analytical reagent grade (purity higher than 95%) and purchased from Calbiochem-Novabiochem Corporation (USA), Gibco BRL (New York, USA), Fluka Chemical Corp. (Buchs, Switzerland) or Sigma-Aldrich Corporation (MO, USA). The ACE I from rabbit lung (EC 3.4.15.1) from Sigma-Aldrich. For the reverse phase chromatography, acetonitrile and TFA were acquired from J.T. Baker. The FRET substrate Abz-FRK(Dnp)P-OH (used by ACE-I assays) were provided by Prof. Adriana Carmona, from the Department of Biophysics of UNIFESP-EPM, São Paulo, Brazil.
Both peptides (30 µM) were incubated separately with ACE ([…]) at 37°C for four hours. Samples containing only the synthetic peptides were used as negative control. After incubation, samples were analyzed by reverse phase chromatography on HPLC (Prominence, Shimadzu), using a Shim-pack VP-ODS C-18 column (4.6× 150 mm). Solvents used were 0.1% (v/v) TFA in water (solvent A), and acetonitrile plus solvent A (9:1) as solvent B. Separations were performed at a flow rate of 1 mL/min and a 10-60% gradient of solvent B over 20 min. In all cases, elution was followed by the measurement of ultraviolet absorption (214 nm).

PC12 cells [1] = system: PC12 cells
Method: (§1) Neuronal cell line (PC12) was used to evaluate the neuroprotective effects of α-scoliidine and β-scoliidine against oxidative stress in vitro. PC12 cell is derived from a transplantable rat pheochromocytoma and was purchased from American Type Culture Collection (USA) (ATCC® CRL-1721™). Cells were routinely cultured in DMEM medium (Sigma-Aldrich) supplemented with 10% fetal bovine serum (Gibco, Waltham, USA), 1% (v/v) of 10000 U/mL penicillin, 10 mg/mL streptomycin and 25 μg/mL amphotericin B solution (Sigma-Aldrich) at 37 °C in an atmosphere of 5% CO2 and 95% air (Water Jacketed CO2 Incubator, Thermo Scientific). At 80% confluence, cells were passaged using trypsin-EDTA solution [0.05% (m/v) trypsin and 0.02% (m/v) EDTA]. Culture medium was replaced every 2-3 days.
PC12 cells were seeded into 96-well plates (Nest Biotechnology, Rahway, USA), at 2.0 × 10^4 cells per well, and were treated with different concentrations (0.1 to 10 µM) of α-scoliidine and β-scoliidine in a final volume of 0.15 mL. The plate was incubated at 37°C for 3, 6, 12, 24, and 48 h. For each concentration and time course studied, there were control and DMSO groups, which represent untreated cells (only one equal volumes of the culture medium) and treated with DMSO 2.5% (v/v) diluted in the medium culture, respectively. The cytotoxic effects of both compounds were determined using crystal violet assay, according to Feoktistova et al.. Briefly, the medium was aspirated, and the cells were washed twice in a gentle stream of tap water. Then, 50 μL of a 0.5 % (v/v) crystal violet staining solution was added to each well, and incubated for 20 min at room temperature on a bench rocker with a frequency of 20 oscillations per min. The plate was washed four times and air-dried for at least 2 h at room temperature. Subsequently, methanol (200 μL) was added to each well, and the plate was incubated with its lid on for 20 min at room temperature on a bench rocker with a frequency of 20 oscillations per min. After, the absorbance of the sample was measured at 570 nm using a SpectraMax reader (Molecular Devices, CA, USA). The cytotoxicity was expressed as percentage (%) of cell integrity relative to control cells (100%).
(§2) All data are presented as mean ± SD of three independent experiments (n = 3) in triplicate. Data were analyzed using one-way analysis of variance (ANOVA) for between-groups comparisons followed by a Tukey’s post-hoc test for multiple comparisons. Values of p < 0.05 were considered to be statistically significant. The analyses were performed using GraphPad Prism 6.0 software (GraphPad Software, Inc., La Jolla, CA).

human neprilysin (NEP) = experiment: Cleavage by NEP; assay type: in vitro ADME; conditions: isolated human neprilysin (NEP)
Description: Table 8 Hydrolyses of α-scoliidine and β-scoliidine by human neprilysin (NEP) and angiotensin-converting enzyme (ACE). | column: Cleavage (%)

[2] = system: human neuroblast-like cell line SH-SY5Y; conditions: cited from earlier work
Description: (§3) BPP-11e (<[…]) and BPP-AP (<[…]), for example, ...

cells = conditions: cited from earlier work
Description: The phenomenon of synergistic toxicity of H2O2 effects when two agents are used together, and efficiently potentiate cell damage, has been reported in the literature. Of the several examples of H2O2 toxicity potentiation by oth ...

[3] = system: nicotinic acetylcholine receptor (nAChR); conditions: prey central nervous system; cited from earlier work
Description: The first study of solitary wasp venoms was reported in 1987. Two kinins, threonine^6-bradykinin (Thr^6-BK) and megascoliakinin, were isolated and characterized from the venoms of the European scoliid wasps Colpa interrupta and Megascolia flavifrons, respectively. […] Thr^6-BK may be a common component of solitary scoliid wasp venoms, since we identified this peptide as a major component in three scoliid wasp venoms found in Japan [[1 ...

PC12 cells [4] = assay type: cell-based, rat
Method: Culture medium was replaced every 2-3 days.
The effects of α-scoliidine or β-scoliidine on the mitochondrial metabolism of PC12 cells were estimated using 3-(4,5-dimethylthiazol-2-yl)-2,5-diphenyltetrazolium bromide (MTT) reduction assay, as previously described. […] In addition, to the experimental groups mentioned above, two more groups were included in which cells were treated with L-N^Ω-Nitroarginine methyl ester (L-Name; 1 mM) and Bradykinin (Bk; 0.3 µM) in the presence or absence of H2O2. After treatments, cells were treated with 0.5 mg/mL MTT in the same medium culture for 3 h at 37°C. The resulting formazan produced by both cell treatments were dissolved by addition of DMSO. The amount of MTT formazan dissolved in DMSO was determined by measuring absorbance with a microplate reader (Spectramax M3 multi-mode, Molecular Devices, CA, EUA) at 540 nm. Data were expressed as the mean ± SD of mitochondrial metabolism percentage in relation to the control.

PC12 cells [5] = system: PC12 cells; remark: listed apart in the source
Method: as §1
PC12 cells were seeded at 2 x 10^4 cells/well in a 96-well plate (Nest Biotechnology, Rahway, USA) for 24 h, and then two neuroprotective assays were evaluated: 1) Cells were pre-treated with α-scoliidine or β-scoliidine (1 µM) at 37°C for 22 h and, after the mediums were replaced containing the peptide and H2O2 (0.6 mM) and incubated for 2 h more; 2) Cells were pre-treated with α-scoliidine or β-scoliidine (1 µM) for 4 h at 37°C and, after the mediums were replaced containing peptide and H2O2 (0.6 mM) and incubated for 20 h more. The control, α-scoliidine and β-scoliidine groups (without H2O2) were incubated under the same conditions. Next, all experimental groups were analyzed by the crystal violet assay.
as §2

PC12 cells [6] = conditions: cited from earlier work
human neural stem cells = conditions: cited from earlier work
Description: as §3

[7] = 0.1 to 10 µM, n = 3 in triplicate

Question: For DYVTVKGFSPLRKA [β-scoliidine], which “Cleavage by ACE” value (ACE) is on record?
Answer: not cleaved by the metallopeptidase

Question: And the metabolised at 4 h, 30 µM (ACE)?
Answer: < 0.01%

Question: What about the “Cell integrity / neurotoxicity at 6 h” value (PC12 cells [1]; [7]) of the same molecule?
Answer: decreased cell integrity after 6 h of treatment in all concentration tested

Question: What about the metabolised (human neprilysin (NEP)) of the same molecule?
Answer: < 0.01%

Question: With <EARPPHPPIPPAP [BPP-AP] as the molecule, how does the “Neuroprotection against H2O2-induced oxidative stress” value [2] read?
Answer: not good neuroprotective peptides against the H2O2-induced oxidative stress

Question: With `O=C1O[C@H]([C@@H](O)CO)C(O)=C1O` [ascorbic acid] as the molecule, how does the “Effect on intracellular oxidative potential of H2O2” value (cells) read?
Answer: enhancement of the intracellular oxidative potential of H2O2

Question: Which results are given for DYVTVKGFSPLR [α-scoliidine]?
Answer: Cleavage by ACE (ACE): not cleaved by the metallopeptidase; metabolised at 4 h, 30 µM (ACE): < 0.01%; Cytotoxicity, cell integrity vs control or DMSO (PC12 cells [1]; 0.1 to 10 µM, 3, 6, 12, 24, and 48 h, mean ± SD of three independent experiments in triplicate): did not show any significant cytotoxicity (p > 0.05) in all dose concentrations, and at the times tested; Cell integrity / neurotoxicity at 6 h (PC12 cells [1]; [7]): showed a tendency for neurotoxicity at 6 h of treatment; metabolised (human neprilysin (NEP)): < 0.01%

Question: With RPPGFTPFRKA [megascoliakinin] as the molecule, how does the “Block of nAChR synaptic transmission” value [3] read?
Answer: irreversibly block the synaptic transmission of the nicotinic acetylcholine receptor (nAChR) in the prey central nervous system

Question: For “RPPGFTPFR [Thr^6-BK, threonine^6-bradykinin]”, which “Block of nAChR synaptic transmission” value [3] is on record?
Answer: irreversibly block the synaptic transmission of the nicotinic acetylcholine receptor (nAChR) in the prey central nervous system

Question: Which results are given for `OO` [H2O2, hydrogen peroxide]?
Answer: Metabolic viability (PC12 cells [4]): 32.23 ± 0.96%; H2O2 concentration above which cytotoxic (PC12 cells [5]): greater than 0.5 mM; H2O2 cytotoxicity dose response, chronic (PC12 cells [5]): also showed a dose-response effect; Reduction of cell viability by H2O2 (PC12 cells [5]): ~ 60%

Question: Which “Cell integrity after 24 and 48 h” value (PC12 cells [1]; 24 and 48 h, compared to the control group, peptides 0.1 to 10 µM, DMSO 2.5% (v/v), n = 3 in triplicate) does the source give for `C[S+](C)[O-]` [DMSO, dimethyl sulfoxide] here?
Answer: decreased the cell integrity after 24 and 48 h compared to the control group

Question: Which “Neuroprotection against H2O2-induced oxidative stress” value [2] does the source give for <EARPPHPPIPP [BPP-11e] here?
Answer: not good neuroprotective peptides against the H2O2-induced oxidative stress

Question: With `COC(=O)[C@@H](N)CCCNC(N)=N[N+](=O)[O-]` [L-Name, L-N^Ω-Nitroarginine methyl ester] as the molecule, how does the “Metabolic viability under H2O2” value (PC12 cells [4]; pre-treatment 4 h, then + H2O2 0.6 mM 20 h, peptides 1 µM, L-Name 1 mM, Bk 0.30 μM, MTT) read?
Answer: prevented the reduction of metabolic viability

Question: Which results are given for `Cc1cccc([C@H](C)c2cnc[nH]2)c1C` [Dexmedetomidine]?
Answer: Proliferation in a stress condition (PC12 cells [6]): dose-dependent restored impaired proliferation of PC12 cells in a stress condition; Protection from ROS-induced cytotoxicity (PC12 cells [6]): protected PC12 cells from ROS-induced cytotoxicity; p21 and cyclin D1 expression (PC12 cells [6]): decreased expression of tumor suppressor protein p21 and increased expression of cell cycle-related cyclin D1

Question: With “Aβ 42: amyloid-β peptide (Aβ) isoform, Aβ 42” as the molecule, how does the “Effect on cell proliferation” value (human neural stem cells) read?
Answer: promotes cell proliferation of human neural stem cells in a concentration-dependent manner

Source: paper PMC8215932, “Novel neuroprotective peptides in the venom of the solitary scoliid wasp Scolia decorata ventralis” (The Journal of Venomous Animals and Toxins Including …, 2021)
